Experimental data: US20260232767A1, “INTERLEUKIN-23 RECEPTOR ANTAGONIST PEPTIDES FOR USE IN THE TREATMENT OF PSORIASIS” (Janssen Pharmaceutica NV, priority 2023, published 2026)

System: subjects with moderate-to-severe plaque psoriasis
Assay: Hematology and chemistry laboratory values by CTCAE grade
Type: in vivo, human
Details: through Week 56
Source text: The proportion of participants who discontinued study intervention due to one or more AEs was low (n=4). All events were singular in nature with no apparent dose-dependent increase (Table 48 and Table 52). The number of participants with abnormal hematology and chemistry laboratory values with CTCAE toxicity grade≥3 were low through the end of the study (Table 43 through Table 46). There was no apparent dose-dependent increase in laboratory abnormality occurrences.

SMILES: CC(=O)NCCCC[C@@H]1NC(=O)[C@H](Cc2c[nH]c3c(C)cccc23)NC(=O)[C@H]([C@@H](C)O)NC(=O)[C@H](CC(N)=O)NC(=O)[C@@H](NC(C)=O)C(C)(C)SSC(C)(C)[C@@H](C(=O)N[C@@H](Cc2ccc(OCCN)cc2)C(=O)N[C@@H](Cc2ccc3ccccc3c2)C(=O)NC2(C(=O)N[C@@H](CCC(=O)O)C(=O)N[C@@H](CC(N)=O)C(=O)N[C@@H](Cc3cccnc3)C(=O)N(C)CC(N)=O)CCOCC2)NC1=O [IL-23 receptor antagonist peptide, Ac-[Pen]*-N-T-[W(7-Me)]-[Lys(Ac)]-[Pen]*-Phe[4-(2-aminoethoxy)]-[2-Nal]-[THP]-E-N-[3-Pal]-Sarc-NH2 (*[Pen]-[Pen]* formdisulfidebond)]
- Platelets (×10^9/L) (decreased): subjects with Grade 1 (25 mg QD): 5
- Platelets (×10^9/L) (decreased): subjects with Grade 2 (25 mg QD): 0
- Platelets (×10^9/L) (decreased): subjects with Grade 3 (25 mg QD): 0
- Platelets (×10^9/L) (decreased): subjects with Grade 4 (25 mg QD): 0
- Platelets (×10^9/L) (decreased): subjects with postbaseline maximum toxicity grade >0 (25 mg QD): 5
- Potassium (decreased): Subjects with Grade 1 (25 mg QD): 0
- Potassium (decreased): Subjects with Grade 2 (25 mg QD): 0
- Potassium (decreased): Subjects with Grade 3 (25 mg QD): 0
- Potassium (decreased): Subjects with Grade 4 (25 mg QD): 0
- Potassium (decreased): Subjects with postbaseline maximum toxicity grade >0 (25 mg QD): 0
- Potassium (increased): Subjects with Grade 3 (25 mg QD): 0
- Potassium (increased): Subjects with Grade 4 (25 mg QD): 0
- Potassium (increased): Subjects with postbaseline maximum toxicity grade >0 (25 mg QD): 7
- Sodium (decreased): Subjects with Grade 2 (25 mg QD): 0
- Sodium (decreased): Subjects with Grade 3 (25 mg QD): 0
- Sodium (decreased): Subjects with Grade 4 (25 mg QD): 0
- Sodium (increased): Subjects with Grade 2 (25 mg QD): 0
- Sodium (increased): Subjects with Grade 3 (25 mg QD): 0
- Sodium (increased): Subjects with Grade 4 (25 mg QD): 0
- Total Bilirubin (increased): Subjects with Grade 2 (25 mg QD): 0
- Total Bilirubin (increased): Subjects with Grade 3 (25 mg QD): 0
- Total Bilirubin (increased): Subjects with Grade 4 (25 mg QD): 0
- Triglycerides (increased): Subjects with Grade 4 (25 mg QD): 0
- WBC (×10^9/L) (decreased): subjects with Grade 2 (25 mg QD): 0
- WBC (×10^9/L) (decreased): subjects with Grade 3 (25 mg QD): 0
- WBC (×10^9/L) (decreased): subjects with Grade 4 (25 mg QD): 0
- WBC (×10^9/L) (increased): subjects with Grade 1 (25 mg QD): 0
- WBC (×10^9/L) (increased): subjects with Grade 2 (25 mg QD): 0
- WBC (×10^9/L) (increased): subjects with Grade 3 (25 mg QD): 0
- WBC (×10^9/L) (increased): subjects with Grade 4 (25 mg QD): 0
- WBC (×10^9/L) (increased): subjects with postbaseline maximum toxicity grade >0 (25 mg QD): 0
- Alanine Aminotransferase (increased): Subjects with Grade 2 (50 mg QD): 0
- Alanine Aminotransferase (increased): Subjects with Grade 3 (50 mg QD): 0
- Alanine Aminotransferase (increased): Subjects with Grade 4 (50 mg QD): 0
- Albumin (decreased): Subjects with Grade 1 (50 mg QD): 0
- Albumin (decreased): Subjects with Grade 2 (50 mg QD): 0
- Albumin (decreased): Subjects with Grade 3 (50 mg QD): 0
- Albumin (decreased): Subjects with Grade 4 (50 mg QD): 0
- Albumin (decreased): Subjects with postbaseline maximum toxicity grade >0 (50 mg QD): 0
- Alkaline Phosphatase (increased): Subjects with Grade 2 (50 mg QD): 0
- Alkaline Phosphatase (increased): Subjects with Grade 3 (50 mg QD): 0
- Alkaline Phosphatase (increased): Subjects with Grade 4 (50 mg QD): 0
- Aspartate Aminotransferase (increased): Subjects with Grade 2 (50 mg QD): 0
- Aspartate Aminotransferase (increased): Subjects with Grade 3 (50 mg QD): 0
- Aspartate Aminotransferase (increased): Subjects with Grade 4 (50 mg QD): 0
- Calcium corrected (decreased): Subjects with Grade 2 (50 mg QD): 0
- Calcium corrected (decreased): Subjects with Grade 3 (50 mg QD): 0
- Calcium corrected (decreased): Subjects with Grade 4 (50 mg QD): 0
- Calcium corrected (increased): Subjects with Grade 1 (50 mg QD): 0
- Calcium corrected (increased): Subjects with Grade 2 (50 mg QD): 0
- Calcium corrected (increased): Subjects with Grade 3 (50 mg QD): 0
- Calcium corrected (increased): Subjects with Grade 4 (50 mg QD): 0
- Calcium corrected (increased): Subjects with postbaseline maximum toxicity grade >0 (50 mg QD): 0
- Cholesterol (increased): Subjects with Grade 2 (50 mg QD): 0
- Cholesterol (increased): Subjects with Grade 3 (50 mg QD): 0
- Cholesterol (increased): Subjects with Grade 4 (50 mg QD): 0
- Creatine Kinase (increased): Subjects with Grade 3 (50 mg QD): 0
- Creatinine (increased): Subjects with Grade 2 (50 mg QD): 0
- Creatinine (increased): Subjects with Grade 3 (50 mg QD): 0
- Creatinine (increased): Subjects with Grade 4 (50 mg QD): 0
- Gamma Glutamyl Transferase (increased): Subjects with Grade 2 (50 mg QD): 0
- Gamma Glutamyl Transferase (increased): Subjects with Grade 3 (50 mg QD): 0
- Gamma Glutamyl Transferase (increased): Subjects with Grade 4 (50 mg QD): 0
- Glucose (decreased): Subjects with Grade 2 (50 mg QD): 0
- Glucose (decreased): Subjects with Grade 3 (50 mg QD): 0
- Glucose (decreased): Subjects with Grade 4 (50 mg QD): 0
- Hemoglobin (g/L) (decreased): subjects with Grade 3 (50 mg QD): 0
- Hemoglobin (g/L) (decreased): subjects with Grade 4 (50 mg QD): 0
- Hemoglobin (g/L) (decreased): subjects with postbaseline maximum toxicity grade >0 (50 mg QD): 5
- Hemoglobin (g/L) (increased): subjects with Grade 1 (50 mg QD): 0
- Hemoglobin (g/L) (increased): subjects with Grade 2 (50 mg QD): 0
- Hemoglobin (g/L) (increased): subjects with Grade 3 (50 mg QD): 0
- Hemoglobin (g/L) (increased): subjects with Grade 4 (50 mg QD): 0
- Hemoglobin (g/L) (increased): subjects with postbaseline maximum toxicity grade >0 (50 mg QD): 0
- Lymphocytes (×10^9/L) (decreased): subjects with Grade 3 (50 mg QD): 0
- Lymphocytes (×10^9/L) (decreased): subjects with Grade 4 (50 mg QD): 0
- Lymphocytes (×10^9/L) (increased): subjects with Grade 1 (50 mg QD): 0
- Lymphocytes (×10^9/L) (increased): subjects with Grade 2 (50 mg QD): 0
- Lymphocytes (×10^9/L) (increased): subjects with Grade 3 (50 mg QD): 0
- Lymphocytes (×10^9/L) (increased): subjects with Grade 4 (50 mg QD): 0
- Lymphocytes (×10^9/L) (increased): subjects with postbaseline maximum toxicity grade >0 (50 mg QD): 0
- Magnesium (decreased): Subjects with Grade 1 (50 mg QD): 0
- Magnesium (decreased): Subjects with Grade 2 (50 mg QD): 0
- Magnesium (decreased): Subjects with Grade 3 (50 mg QD): 0
- Magnesium (decreased): Subjects with Grade 4 (50 mg QD): 0
- Magnesium (decreased): Subjects with postbaseline maximum toxicity grade >0 (50 mg QD): 0
- Magnesium (increased): Subjects with Grade 2 (50 mg QD): 0
- Magnesium (increased): Subjects with Grade 3 (50 mg QD): 0
- Magnesium (increased): Subjects with Grade 4 (50 mg QD): 0
- Neutrophils (×10^9/L) (decreased): subjects with Grade 3 (50 mg QD): 0
- Neutrophils (×10^9/L) (decreased): subjects with Grade 4 (50 mg QD): 0
- Platelets (×10^9/L) (decreased): subjects with Grade 1 (50 mg QD): 0
- Platelets (×10^9/L) (decreased): subjects with Grade 2 (50 mg QD): 0
- Platelets (×10^9/L) (decreased): subjects with Grade 3 (50 mg QD): 0
- Platelets (×10^9/L) (decreased): subjects with Grade 4 (50 mg QD): 0
- Platelets (×10^9/L) (decreased): subjects with postbaseline maximum toxicity grade >0 (50 mg QD): 0
- Potassium (decreased): Subjects with Grade 1 (50 mg QD): 0
- Potassium (decreased): Subjects with Grade 2 (50 mg QD): 0
- Potassium (decreased): Subjects with Grade 3 (50 mg QD): 0
- Potassium (decreased): Subjects with Grade 4 (50 mg QD): 0
- Potassium (decreased): Subjects with postbaseline maximum toxicity grade >0 (50 mg QD): 0
- Potassium (increased): Subjects with Grade 2 (50 mg QD): 0
- Potassium (increased): Subjects with Grade 4 (50 mg QD): 0
- Sodium (decreased): Subjects with Grade 1 (50 mg QD): 0
- Sodium (decreased): Subjects with Grade 2 (50 mg QD): 0
- Sodium (decreased): Subjects with Grade 3 (50 mg QD): 0
- Sodium (decreased): Subjects with Grade 4 (50 mg QD): 0
- Sodium (decreased): Subjects with postbaseline maximum toxicity grade >0 (50 mg QD): 0
- Sodium (increased): Subjects with Grade 1 (50 mg QD): 0
- Sodium (increased): Subjects with Grade 2 (50 mg QD): 0
- Sodium (increased): Subjects with Grade 3 (50 mg QD): 0
- Sodium (increased): Subjects with Grade 4 (50 mg QD): 0
- Sodium (increased): Subjects with postbaseline maximum toxicity grade >0 (50 mg QD): 0
- Total Bilirubin (increased): Subjects with Grade 3 (50 mg QD): 0
- Total Bilirubin (increased): Subjects with Grade 4 (50 mg QD): 0
- Total Bilirubin (increased): Subjects with postbaseline maximum toxicity grade >0 (50 mg QD): 5
- Triglycerides (increased): Subjects with Grade 1 (50 mg QD): 0
- Triglycerides (increased): Subjects with Grade 4 (50 mg QD): 0
- WBC (×10^9/L) (decreased): subjects with Grade 3 (50 mg QD): 0
- WBC (×10^9/L) (decreased): subjects with Grade 4 (50 mg QD): 0
- WBC (×10^9/L) (increased): subjects with Grade 1 (50 mg QD): 0
- WBC (×10^9/L) (increased): subjects with Grade 2 (50 mg QD): 0
- WBC (×10^9/L) (increased): subjects with Grade 3 (50 mg QD): 0
- WBC (×10^9/L) (increased): subjects with Grade 4 (50 mg QD): 0
- WBC (×10^9/L) (increased): subjects with postbaseline maximum toxicity grade >0 (50 mg QD): 0
- Alanine Aminotransferase (increased): Subjects with Grade 1 (100 mg BID): 10
- Alanine Aminotransferase (increased): Subjects with Grade 3 (100 mg BID): 0
- Alanine Aminotransferase (increased): Subjects with Grade 4 (100 mg BID): 0
- Albumin (decreased): Subjects with Grade 1 (100 mg BID): 0
- Albumin (decreased): Subjects with Grade 2 (100 mg BID): 0
- Albumin (decreased): Subjects with Grade 3 (100 mg BID): 0
- Albumin (decreased): Subjects with Grade 4 (100 mg BID): 0
- Albumin (decreased): Subjects with postbaseline maximum toxicity grade >0 (100 mg BID): 0
- Alkaline Phosphatase (increased): Subjects with Grade 1 (100 mg BID): 0
- Alkaline Phosphatase (increased): Subjects with Grade 2 (100 mg BID): 0
- Alkaline Phosphatase (increased): Subjects with Grade 3 (100 mg BID): 0
- Alkaline Phosphatase (increased): Subjects with Grade 4 (100 mg BID): 0
- Alkaline Phosphatase (increased): Subjects with postbaseline maximum toxicity grade >0 (100 mg BID): 0
- Aspartate Aminotransferase (increased): Subjects with Grade 1 (100 mg BID): 7
- Aspartate Aminotransferase (increased): Subjects with Grade 4 (100 mg BID): 0
- Aspartate Aminotransferase (increased): Subjects with postbaseline maximum toxicity grade >0 (100 mg BID): 9
- Calcium corrected (decreased): Subjects with Grade 3 (100 mg BID): 0
- Calcium corrected (decreased): Subjects with Grade 4 (100 mg BID): 0
- Calcium corrected (increased): Subjects with Grade 1 (100 mg BID): 0
- Calcium corrected (increased): Subjects with Grade 2 (100 mg BID): 0
- Calcium corrected (increased): Subjects with Grade 3 (100 mg BID): 0
- Calcium corrected (increased): Subjects with Grade 4 (100 mg BID): 0
- Calcium corrected (increased): Subjects with postbaseline maximum toxicity grade >0 (100 mg BID): 0
- Cholesterol (increased): Subjects with Grade 2 (100 mg BID): 0
- Cholesterol (increased): Subjects with Grade 3 (100 mg BID): 0
- Cholesterol (increased): Subjects with Grade 4 (100 mg BID): 0
